Source: patent US9907842B2, “Cytotoxic T lymphocyte inducing immunogens for prevention treatment and diagnosis of cancer” (Immunotope, Inc., priority 2009, dated 2018)

Experiments:
Format in all cases: cell-based, human
[1] = test system: T2 cells loaded with the corresponding synthetic peptide and HLA-A2+ lung cancer cells lines [CRL-5865, CRL-5944 and NCI-H522]; test: Interferon-γ ELISpot with peptide-specific CTL from healthy HLA-A2+ donors; details: CTL from PBMC of two healthy HLA-A2+ donors; FIG. 1
Procedure: (§1) PBMC were purified from HLA-A2^+ normal donor blood using lymphocyte separation media (Cappel ICN Biomedical, Aurora, Ohio). PBMC (5.3×10^6) were added to individual wells of a 24-well cluster plate (Costar, Corning, N.Y.) in 1.0 ml of serum-free AIM-V medium (Life Technologies) and allowed to adhere for 60 min at 37° C. Non-adherent cells were removed and saved as a source of effector T cells. Adherent PBMC (˜8.3×10^5/well) were then pulsed with […] synthetic peptides in serum-free AIM-V medium containing […] β2-microglobulin (Calbiochem-Novabiochem, San Diego, Calif.) and incubated for 2 h at 37° C. Unbound peptides were aspirated and the wells washed with media.
(§2) Monocyte-derived DC were generated as follows. PBMC (5.3×10^7) were allowed to adhere in T-75 flasks (Corning) in 10 ml of serum-free AIM-V medium for 60 min at 37° C. Non-adherent cells were collected as a source of effector T cells and pooled with the previous collection above. Adherent monocytes in flasks were then exposed to recombinant human granulocyte macrophage colony stimulating factor (GM-CSF, 25 ng/ml; Peprotech) and recombinant human IL-4 (100 ng/ml; Peprotech) in 10 ml of AIM-V medium containing 10% heat-inactivated FBS. DC obtained by this method [immature DC (iDC)] are characterized by expression of low levels of CD83, CD80, CD86, and HLA class I and class II molecules (data not shown).
(§3) Mature DC (mDC) were obtained by exposing day 5 DC cultures to recombinant soluble CD40 ligand (sCD40L; Peprotech) at […] for 24 h in the presence of 25 ng/ml GM-CSF and are characterized by expression of high levels of CD80, CD86, and HLA class I and class II molecules.mDC were harvested, washed, pulsed with 5 mg/ml peptide in serum-free AIM-V medium and irradiated (5000 rad) prior to use as stimulators.
(§4) The protocol used here is a modification of the method described by Plebanski et al. (Eur. J. Immunol. 25:1783, (1995)). CTL to peptide were generated by 3±4 cycles of stimulation with peptide-loaded APC. For the first round of stimulation (day 0), T cells or non-adherent PBMC from above (2.3×10^6/ml or 4.3×10^6 per well) were added in bulk (CD4^+, CD8^+, NK, etc.) to adherent PBMC-loaded peptides in serum-free medium ([…]), β2-microglobulin ([…]) (Calbiochem-Novabiochem), recombinant human IL-7 (5 ng/ml) (Peprotech) and keyhole limpet hemocyanin (5 mg/ml) (Sigma, St Louis, Mo.). Cultures were re-stimulated with iDC every 7 days, pulsed with varying amounts of peptide (second round 25 mg/ml, third round 10 mg/ml) and irradiated (5000 rad) on day 8. At each re-stimulation, the T cells were transferred to new plates by first aspirating 70% of spent media in wells and then transferring the pooled contents to a new plate. Fresh IL-7 was added at each re-stimulation. The responder:stimulator (T cell:DC) ratio was set at 20 for each stimulation. Recombinant human IL-2 (10 U/ml) was added on day 5 after each re-stimulation.
(§5) Prior to CTL assays, the T cells were harvested and CD8^+ T cells were purified by positive selection using CD8^+ microbeads immunomagnetic cell separation with MACS kit (Miltenyi Biotec, Auburn, Calif.). If a fourth round of stimulation was necessary following CTL analysis, the CTL were pulsed as before, except with 5±10 mg/ml of peptide.
(§6) The peptide specific CTLs were assessed for recognition and/or lysis of peptide-loaded T2 cells as well as various lung normal and tumor target cells. After two to four rounds of restimulation, cultures were tested for cytotoxic activity against the peptide loaded and normal and tumor targets. Peptide-pulsed T2 cells (1 μg/ml peptide for 2 hr at 37° C.), irrelevant HLA-A2 peptides pulsed T2 cells were used as controls. […]

[2] = test system: T2 cells loaded with the corresponding synthetic peptide and HLA-A2+ lung cancer cells lines [CRL-5865, CRL-5944 and NCI-H522]; test: Granzyme B ELISpot with peptide-specific CTL from healthy HLA-A2+ donors; details: CTL from PBMC of two healthy HLA-A2+ donors; FIG. 2
Procedure: as §1, §2, §3, §4, §5, §6

[3] = test system: T2 cells loaded with the corresponding synthetic peptide and HLA-A2+ lung cancer cells lines [CRL-5865, CRL-5944 and NCI-H522]; test: Granzyme B ELISpot with peptide-specific CTL from a HLA-A2+ lung cancer patient; details: CTL from PBMC of a HLA-A2+ lung cancer patient; FIG. 3B
Procedure: (§7) The protocol used here is a modification of the method described by Plebanski et al. (Eur. J. Immunol. 25:1783, (1995)). CTL to peptide were generated by 3±4 cycles of stimulation with peptide-loaded APC. For the first round of stimulation (day 0), T cells or non-adherent PBMC from above (2.3×10^6/ml or 4.3×10^6 per well) were added in bulk (CD4^+, CD8^+, NK, etc.) to adherent PBMC-loaded peptides in serum-free medium ([…]), β2-microglobulin ([…]) (Calbiochem-Novabiochem), recombinant human IL-7 (5 ng/ml) (Peprotech) and keyhole limpet hemocyanin (5 mg/ml) (Sigma, St Louis, Mo.). Cultures were re-stimulated with iDC every 7 days, pulsed with varying amounts of peptide (second round 25 mg/ml, third round 10 mg/ml) and irradiated (5000 rad) on day 8. At each re-stimulation, the T cells were transferred to new plates by first aspirating 70% of spent media in wells and then transferring the pooled contents to a new plate. Fresh IL-7 was added at each re-stimulation. The responder:stimulator (T cell:DC) ratio was set at 20 for each stimulation. Recombinant human IL-2 (10 U/ml) was added on day 5 after each re-stimulation. […]
(§8) The peptide specific CTLs were assessed for recognition and/or lysis of peptide-loaded T2 cells as well as various lung normal and tumor target cells. […] Recognition of specific antigens by peptide-specific CTL was measured by production of IFN-gamma and granzyme in the ELISPOT assay (Ramakrishna, V., M. M. Ross, M. Petersson, C. C. Gatlin, C. E. Lyons, C. L. Miller, H. E. Myers, M. McDaniel, L. R. Karns, R. Kiessling, G. Parmiani, and D.C. Flyer. (2003) Int Immunol 15:751-763; Morse, M. A., S. K. Nair, P. J. Mosca, A. C. Hobeika, T. M. Clay, Y. Deng, D. Boczkowski, A. Proia, D. Neidzwiecki, P. A. Clavien, H. I. Hurwitz, J. Schlom, E. Gilboa, and H. K. Lyerly. (2003) Cancer Invest 21:341-349). […]
PBMC from a HLA-A2^+ lung cancer patient were in vitro stimulated with synthetic peptides corresponding to each of the three selected lung cancer epitopes (SEQ ID 82, SEQ ID 34 and SEQ ID 67). […] Granzyme B producing cells were quantitated using an Immunospot reader. […]

[4] = test system: T2 cells loaded with the corresponding synthetic peptide and HLA-A2+ lung cancer cells lines [CRL-5865, CRL-5944 and NCI-H522]; test: Interferon-γ ELISpot with peptide-specific CTL from a HLA-A2+ lung cancer patient; details: CTL from PBMC of a HLA-A2+ donor with lung cancer; FIG. 3A
Procedure: as §7, with “stimulation.” for “stimulation. Recombinant human IL-2 (10 U/ml) was added on day 5 after each re-stimulation.”
as §8
PBMC from a HLA-A2^+ donor with lung cancer were in vitro stimulated with synthetic peptides corresponding to each of the three selected lung cancer epitopes (SEQ ID 82, SEQ ID 34 and SEQ ID 67). […] Interferon-γ producing cells were quantitated using an Immunospot reader. […]

## DQFQKVLSL (listed as Homo sapiens) [SEQ ID 08]
[1]
  recognition of targets by peptide-specific CTL (Interferon-γ producing cells): recognize peptide loaded targets as well as lung cancer cells
[2]
  cytolytic activity of peptide-specific CTL (Granzyme B producing cells): are cytolytic

## GMYGKIAVMEL (listed as Homo sapiens) [SEQ ID 19]
[1]
  recognition of targets by peptide-specific CTL (Interferon-γ producing cells): recognize peptide loaded targets as well as lung cancer cells
[2]
  cytolytic activity of peptide-specific CTL (Granzyme B producing cells): are cytolytic

## KIYQWINEL (listed as Homo sapiens) [SEQ ID 29]
[1]
  recognition of targets by peptide-specific CTL (Interferon-γ producing cells): recognize peptide loaded targets as well as lung cancer cells
[2]
  cytolytic activity of peptide-specific CTL (Granzyme B producing cells): are cytolytic

## KLGEFAKVLEL (listed as Homo sapiens) [SEQ ID 33]
[1]
  recognition of targets by peptide-specific CTL (Interferon-γ producing cells): recognize peptide loaded targets as well as lung cancer cells
[2]
  cytolytic activity of peptide-specific CTL (Granzyme B producing cells): are cytolytic

## KLIPFLEKL (listed as Homo sapiens) [SEQ ID 34]
[1]
  recognition of targets by peptide-specific CTL (Interferon-γ producing cells): recognize peptide loaded targets as well as lung cancer cells
[3]
  cytolytic activity of peptide-specific CTL (Granzyme B producing cells): are cytolytic
[2]
  cytolytic activity of peptide-specific CTL (Granzyme B producing cells): are cytolytic
[4]
  recognition of targets by peptide-specific CTL (Interferon-γ producing cells): recognize peptide loaded targets as well as lung cancer cells

## KLSLVAAML (listed as Homo sapiens) [SEQ ID 36]
[1]
  recognition of targets by peptide-specific CTL (Interferon-γ producing cells): recognize peptide loaded targets as well as lung cancer cells
[2]
  cytolytic activity of peptide-specific CTL (Granzyme B producing cells): are cytolytic

## RLLEVPVML (listed as Homo sapiens) [SEQ ID 67]
[1]
  recognition of targets by peptide-specific CTL (Interferon-γ producing cells): recognize peptide loaded targets as well as lung cancer cells
[3]
  cytolytic activity of peptide-specific CTL (Granzyme B producing cells): are cytolytic
[2]
  cytolytic activity of peptide-specific CTL (Granzyme B producing cells): are cytolytic
[4]
  recognition of targets by peptide-specific CTL (Interferon-γ producing cells): recognize peptide loaded targets as well as lung cancer cells

## VLVPVLVMV (listed as Homo sapiens) [SEQ ID 82]
[1]
  recognition of targets by peptide-specific CTL (Interferon-γ producing cells): recognize peptide loaded targets as well as lung cancer cells
[3]
  cytolytic activity of peptide-specific CTL (Granzyme B producing cells): are cytolytic
[2]
  cytolytic activity of peptide-specific CTL (Granzyme B producing cells): are cytolytic
[4]
  recognition of targets by peptide-specific CTL (Interferon-γ producing cells): recognize peptide loaded targets as well as lung cancer cells
